Experimental data as given in ChEMBL document CHEMBL2074565, “Molecular mechanisms of organic cation transport in OCT2-expressing Xenopus oocytes” (Biochim Biophys Acta, 1999).

Experiments:
[1] = biological target: T1, Solute carrier family 22 member 2 (Rattus norvegicus, UniProt Q9R0W2); assay: TP_TRANSPORTER: inhibition of TEA uptake (TEA: 100 uM) in Xenopus laevis oocytes; type: functional, cell-based, Oocyte
T1 sequence (Q9R0W2 whole entry): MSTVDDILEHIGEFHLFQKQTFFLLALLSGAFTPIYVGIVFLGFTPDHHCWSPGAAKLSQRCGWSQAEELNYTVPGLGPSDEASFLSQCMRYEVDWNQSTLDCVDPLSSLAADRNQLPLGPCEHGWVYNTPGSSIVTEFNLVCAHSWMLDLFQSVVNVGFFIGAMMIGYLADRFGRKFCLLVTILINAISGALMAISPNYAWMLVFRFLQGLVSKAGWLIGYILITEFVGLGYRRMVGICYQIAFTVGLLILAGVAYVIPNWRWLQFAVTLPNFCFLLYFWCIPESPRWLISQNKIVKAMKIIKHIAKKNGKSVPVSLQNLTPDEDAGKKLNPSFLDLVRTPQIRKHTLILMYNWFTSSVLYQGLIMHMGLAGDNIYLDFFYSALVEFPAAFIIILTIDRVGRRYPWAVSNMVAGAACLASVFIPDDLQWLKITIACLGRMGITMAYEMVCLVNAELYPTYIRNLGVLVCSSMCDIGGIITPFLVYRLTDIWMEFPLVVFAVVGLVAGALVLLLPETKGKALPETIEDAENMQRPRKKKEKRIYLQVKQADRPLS

[2] = biological target: T2, Solute carrier family 22 member 1 (Rattus norvegicus, UniProt Q63089)
T2 sequence (Q63089 whole entry): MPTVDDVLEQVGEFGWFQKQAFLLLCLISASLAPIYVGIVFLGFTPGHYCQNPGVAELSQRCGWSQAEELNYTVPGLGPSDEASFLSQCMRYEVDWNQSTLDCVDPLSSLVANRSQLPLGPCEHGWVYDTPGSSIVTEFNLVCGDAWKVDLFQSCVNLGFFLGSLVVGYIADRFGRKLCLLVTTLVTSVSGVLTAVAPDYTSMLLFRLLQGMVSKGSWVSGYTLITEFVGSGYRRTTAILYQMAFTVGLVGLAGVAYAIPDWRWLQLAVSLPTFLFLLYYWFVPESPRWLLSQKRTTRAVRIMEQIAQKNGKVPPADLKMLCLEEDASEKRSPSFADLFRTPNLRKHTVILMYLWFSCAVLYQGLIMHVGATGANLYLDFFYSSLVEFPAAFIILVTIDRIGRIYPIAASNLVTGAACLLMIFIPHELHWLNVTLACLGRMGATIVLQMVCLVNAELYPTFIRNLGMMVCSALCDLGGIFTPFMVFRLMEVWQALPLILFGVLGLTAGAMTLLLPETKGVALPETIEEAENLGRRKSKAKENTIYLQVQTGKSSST

[3] = biological target: T1, Solute carrier family 22 member 2; assay: TP_TRANSPORTER: inhibition of TEA uptake (TEA: 250 uM, Levofloxacin: 5000 uM) in Xenopus laevis oocytes; type: functional, cell-based; details: oocyte
[4] = substrate: CC[N+](CC)(CC)CC; assay: cells, lysate or membranes named

| Molecule | IC50 [1] | IC50 [2] | Activity [3] | Km [4] |
| --- | --- | --- | --- | --- |
| CN/C(=N/CCSCc1nc[nH]c1C)NC#N [CIMETIDINE] | 373 µM | 329 µM | – | – |
| C[C@H]1COc2c(N3CCN(C)CC3)c(F)cc3c(=O)c(C(=O)O)cn1c23.C[C@H]1COc2c(N3CCN(C)CC3)c(F)cc3c(=O)c(C(=O)O)cn1c23.O [LEVOFLOXACIN] | – | – | inhibitor [+] | – |
| CCN1/C(=C/c2ccc3ccccc3[n+]2CC)C=Cc2ccccc21 | 13.8 µM | – | – | – |
| C[N+](C)(C)CCO [CHOLINE] | 159 µM | 398 µM | – | – |
| Solute carrier family 22 member 2 (Rattus norvegicus) (protein) MSTVDDILEHIGEFHLFQKQTFFLLALLSGAFTPIYVGIVFLGFTPDHHCWSPGAAKLSQRCGWSQAEELNYTVPGLGPSDEASFLSQCMRYEVDWNQSTLDCVDPLSSLAADRNQLPLGPCEHGWVYNTPGSSIVTEFNLVCAHSWMLDLFQSVVNVGFFIGAMMIGYLADRFGRKFCLLVTILINAISGALMAISPNYAWMLVFRFLQGLVSKAGWLIGYILITEFVGLGYRRMVGICYQIAFTVGLLILAGVAYVIPNWRWLQFAVTLPNFCFLLYFWCIPESPRWLISQNKIVKAMKIIKHIAKKNGKSVPVSLQNLTPDEDAGKKLNPSFLDLVRTPQIRKHTLILMYNWFTSSVLYQGLIMHMGLAGDNIYLDFFYSALVEFPAAFIIILTIDRVGRRYPWAVSNMVAGAACLASVFIPDDLQWLKITIACLGRMGITMAYEMVCLVNAELYPTYIRNLGVLVCSSMCDIGGIITPFLVYRLTDIWMEFPLVVFAVVGLVAGALVLLLPETKGKALPETIEDAENMQRPRKKKEKRIYLQVKQADRPLS | – | – | – | 33.8 µM |
